# Experimental data published in patent US20260191858A1, “COMBINATION THERAPIES” (Kallyope, Inc., priority 2022, published 2026).
# Biological target: T1, human GPR119 (hGPR119) (Homo sapiens, UniProt Q8TDV5)
# T1 construct: expressed in transfected cells; host or cells: CHO-K1
# T1 sequence (Q8TDV5 1-335): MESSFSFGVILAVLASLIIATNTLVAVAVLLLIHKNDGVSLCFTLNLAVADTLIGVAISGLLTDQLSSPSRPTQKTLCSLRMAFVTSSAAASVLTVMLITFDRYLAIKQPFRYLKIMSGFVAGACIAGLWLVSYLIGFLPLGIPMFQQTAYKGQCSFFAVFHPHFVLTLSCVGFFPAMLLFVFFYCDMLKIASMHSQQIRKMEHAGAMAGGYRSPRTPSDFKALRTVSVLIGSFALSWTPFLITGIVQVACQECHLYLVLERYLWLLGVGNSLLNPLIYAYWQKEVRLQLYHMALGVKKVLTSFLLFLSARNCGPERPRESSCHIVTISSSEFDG
# Experiment: cAMP accumulation assay in CHO-K1 cells stably expressing hGPR119
# Type: cell-based
# Conditions: cAMP HTRF, 60 minutes
# Experimental: CHO-K1 cells stably expressing human GPR119 (hGPR119) were prepared by transfection of a GPR119-carrying plasmid using Lipofectamine 2000 (following manufacturer instructions). A stable cell line was established using the limiting dilution method with geneticine selection. Assay-ready frozen (ARF) cells were prepared and used throughout the study.
# The assay was performed in a 384-well plate format using the CAMP Gs dynamic assay kit from Cisbio. ARF cells expressing hGPR119 were thawed, washed and then resuspended in CAMP stimulation buffer at a cell density of 1.1×10^6 cells/mL. Cells were plated at a density of ~10,000 cells/well (9 μL/well). Dose response curves for the tested compounds were prepared in a cAMP stimulation buffer, containing 0.1% Tween 80 at 4 fold the final concentration. The compounds were then transferred to the cell plates using BRAVO (3 μL/well) and the plates were incubated for 60 minutes at 37° C./5% CO2. Detection buffer (10 μL, prepared as described in the CAMP Gs dynamic kit) were added to each well, and the plates were incubated at ambient temperature for 1 hr.
# RT-FRET was measured using a ClarioSTAR plate reader, calculating the ratio between emissions at 665 nm and 620 nm (HTRF ratio). The HTRF ratio for positive (Max) and negative (Min) controls were used to normalize HTRF data and generate values for % activity. EC50 and Max activity values were determined using a standard 4-parameter fit.
row,Structure (SMILES),EC50
1,"O=C(Cc1ccc(OCCCC2CCN(c3ncc(Cl)cn3)CC2)cc1F)N1CC(CN2C[C@@H](O)[C@@H](O)[C@@H](O)C2)C1 [Compound A22, 2-[4-[3-[1-(5-chloropyrimidin-2-yl)-4-piperidyl]propoxy]-2-fluoro-phenyl]-1-[3-[[rac-(3R,5S)-3,4,5-trihydroxy-1-piperidyl]methyl]azetidin-1-yl]ethanone]",≤ 0.1 µM
2,O=C(Cc1ccc(OCCCC2CCN(c3ncc(Cl)cn3)CC2)cc1F)N1CC(CNCCOCCOCCO)C1 [Compound A23],≤ 0.1 µM
3,"NCCOCCOCCNCC1CN(C(=O)Cc2ccc(OCCCC3CCN(c4ncc(Cl)cn4)CC3)cc2F)C1 [Compound A24, 1-[3-[[2-[2-(2-aminoethoxy)ethoxy]ethylamino]methyl]azetidin-1-yl]-2-[4-[3-[1-(5-chloropyrimidin-2-yl)-4-piperidyl]propoxy]-2-fluoro-phenyl]ethanone]",0.1 to 1 µM
4,"O=C(Cc1c(F)cc(OCCCC2CCN(c3ncc(Cl)cn3)CC2)cc1F)N1CC(CNC[C@H](O)[C@@H](O)[C@H](O)[C@H](O)CO)C1 [Compound A25, 2-[4-[3-[1-(5-chloropyrimidin-2-yl)-4-piperidyl]propoxy]-2,6-difluoro-phenyl]-1-[3-[[[(2S,3R,4R,5R)-2,3,4,5,6-pentahydroxyhexyl]amino]methyl]azetidin-1-yl]ethanone]",≤ 0.1 µM
5,"O=C(Cc1ccc(OCCCC2CCN(c3ncc(Cl)cn3)CC2)cc1F)N1CC(CCNC(CO)CO)C1 [Compound A26, 2-(4-(3-(1-(5-chloropyrimidin-2-yl)piperidin-4-yl)propoxy)-2-fluorophenyl)-1-(3-(2-((1,3-dihydroxypropan-2-yl)amino)ethyl)azetidin-1-yl)ethan-1-one]",≤ 0.1 µM
6,"O=C(Cc1ccc(OCCCC2CCN(c3ncc(Cl)cn3)CC2)cc1F)N1CC(CCNCC(CO)CO)C1 [Compound A27, 2-(4-(3-(1-(5-chloropyrimidin-2-yl)piperidin-4-yl)propoxy)-2-fluorophenyl)-1-(3-(2-((3-hydroxy-2-(hydroxymethyl)propyl)amino)ethyl)azetidin-1-yl)ethan-1-one]",≤ 0.1 µM
7,"O=C(Cc1ccc(OCCCC2CCN(c3ncc(Cl)cn3)CC2)cc1F)N1CC(CCNCC(O)(CO)CO)C1 [Compound A28, 2-(4-(3-(1-(5-chloropyrimidin-2-yl)piperidin-4-yl)propoxy)-2-fluorophenyl)-1-(3-(2-((2,3-dihydroxy-2-(hydroxymethyl)propyl)amino)ethyl)azetidin-1-yl)ethan-1-one]",0.1 to 1 µM
8,"O=C(Cc1ccc(OCCCC2CCN(c3ncc(Cl)cn3)CC2)cc1F)N1CC(CCNC(CO)(CO)CO)C1 [Compound A29, 2-(4-(3-(1-(5-chloropyrimidin-2-yl)piperidin-4-yl)propoxy)-2-fluorophenyl)-1-(3-(2-((1,3-dihydroxy-2-(hydroxymethyl)propan-2-yl)amino)ethyl)azetidin-1-yl)ethan-1-one]",0.1 to 1 µM
9,"O=C(NCCNCCC1CN(C(=O)Cc2ccc(OCCCC3CCN(c4ncc(Cl)cn4)CC3)cc2F)C1)NC(CO)(CO)CO [Compound A30, 1-(2-((2-(1-(2-(4-(3-(1-(5-chloropyrimidin-2-yl)piperidin-4-yl)propoxy)-2-fluorophenyl)acetyl)azetidin-3-yl)ethyl)amino)ethyl)-3-(1,3-dihydroxy-2-(hydroxymethyl)propan-2-yl)urea]",0.1 to 1 µM
10,"O=C(Cc1ccc(OCCCC2CCN(c3ncc(Cl)cn3)CC2)cc1F)N1CC(CCNC[C@H](O)[C@@H](O)[C@H](O)[C@H](O)CO)C1 [Compound A31, 2-[4-[3-[1-(5-chloropyrimidin-2-yl)-4-piperidyl]propoxy]-2-fluoro-phenyl]-1-[3-[2-[[(2S,3R,4R,5R)-2,3,4,5,6-pentahydroxyhexyl]amino]ethyl]azetidin-1-yl]ethanone]",0.1 to 1 µM
11,"CCc1cnc(N2CCC(CCCOc3ccc(CC(=O)N4CC(CNCC(CO)CO)C4)c(F)c3)CC2)nc1 [Compound A32, 2-(4-(3-(1-(5-ethylpyrimidin-2-yl)piperidin-4-yl)propoxy)-2-fluorophenyl)-1-(3-(((3-hydroxy-2-(hydroxymethyl)propyl)amino)methyl)azetidin-1-yl)ethan-1-one]",0.1 to 1 µM
12,"CCc1cnc(N2CCC(CCCOc3ccc(CC(=O)N4CC(CNCC(O)(CO)CO)C4)c(F)c3)CC2)nc1 [Compound A33, 1-(3-(((2,3-dihydroxy-2-(hydroxymethyl)propyl)amino)methyl)azetidin-1-yl)-2-(4-(3-(1-(5-ethylpyrimidin-2-yl)piperidin-4-yl)propoxy)-2-fluorophenyl)ethan-1-one]",≤ 0.1 µM
13,"CCc1cnc(N2CCC(CCCOc3ccc(CC(=O)N4CC(CNC(CO)(CO)CO)C4)c(F)c3)CC2)nc1 [Compound A34, 1-(3-(((1,3-dihydroxy-2-(hydroxymethyl)propan-2-yl)amino)methyl)azetidin-1-yl)-2-(4-(3-(1-(5-ethylpyrimidin-2-yl)piperidin-4-yl)propoxy)-2-fluorophenyl)ethan-1-one]",≤ 0.1 µM
14,"CCc1cnc(N2CCC(CCCOc3ccc(CC(=O)N4CC(CNCCNC(=O)NC(CO)(CO)CO)C4)c(F)c3)CC2)nc1 [Compound A35, 1-(1,3-dihydroxy-2-(hydroxymethyl)propan-2-yl)-3-(2-(((1-(2-(4-(3-(1-(5-ethylpyrimidin-2-yl)piperidin-4-yl)propoxy)-2-fluorophenyl)acetyl)azetidin-3-yl)methyl)amino)ethyl)urea]",≤ 0.1 µM
15,"CCc1cnc(N2CCC(CCCOc3cc(F)c(CC(=O)N4CC(CNCC(O)(CO)CO)C4)c(F)c3)CC2)nc1 [Compound A37, 1-(3-(((2,3-dihydroxy-2-(hydroxymethyl)propyl)amino)methyl)azetidin-1-yl)-2-(4-(3-(1-(5-ethylpyrimidin-2-yl)piperidin-4-yl)propoxy)-2,6-difluorophenyl)ethan-1-one]",≤ 0.1 µM
16,"CCc1cnc(N2CCC(CCCOc3cc(F)c(CC(=O)N4CC(CNCCNC(=O)NC(CO)(CO)CO)C4)c(F)c3)CC2)nc1 [Compound A38, 1-(1,3-dihydroxy-2-(hydroxymethyl)propan-2-yl)-3-(2-(((1-(2-(4-(3-(1-(5-ethylpyrimidin-2-yl)piperidin-4-yl)propoxy)-2,6-difluorophenyl)acetyl)azetidin-3-yl)methyl)amino)ethyl)urea]",≤ 0.1 µM
17,"CCCc1cnc(N2CCC(CCCOc3ccc(CC(=O)N4CC(CNCC(CO)CO)C4)c(F)c3)CC2)nc1 [Compound A40, 2-(2-fluoro-4-(3-(1-(5-propylpyrimidin-2-yl)piperidin-4-yl)propoxy)phenyl)-1-(3-(((3-hydroxy-2-(hydroxymethyl)propyl)amino)methyl)azetidin-1-yl)ethan-1-one]",≤ 0.1 µM
18,"CCCc1cnc(N2CCC(CCCOc3ccc(CC(=O)N4CC(CNCC(O)(CO)CO)C4)c(F)c3)CC2)nc1 [Compound A41, 1-(3-(((2,3-dihydroxy-2-(hydroxymethyl)propyl)amino)methyl)azetidin-1-yl)-2-(2-fluoro-4-(3-(1-(5-propylpyrimidin-2-yl)piperidin-4-yl)propoxy)phenyl)ethan-1-one]",≤ 0.1 µM
19,"CCCc1cnc(N2CCC(CCCOc3ccc(CC(=O)N4CC(CNC(CO)(CO)CO)C4)c(F)c3)CC2)nc1 [Compound A42, 1-(3-(((1,3-dihydroxy-2-(hydroxymethyl)propan-2-yl)amino)methyl)azetidin-1-yl)-2-(2-fluoro-4-(3-(1-(5-propylpyrimidin-2-yl)piperidin-4-yl)propoxy)phenyl)ethan-1-one]",≤ 0.1 µM
